The supplement of paper PMC10307832

What was measured:
Experiment in all cases: relative viability (nuclei count vs DMSO), 5 days (fraction); higher = more cells survive
[1] = compound: C1=CC2=NC=CN=C2C=C1/C=C/3\C(=O)NC(=O)S3 + CC1(C)CCC(c2ccc(Cl)cc2)=C(CN2CCN(c3ccc(C(=O)NS(=O)(=O)c4ccc(N[C@H](CCN5CCOCC5)CSc5ccccc5)c(S(=O)(=O)C(F)(F)F)c4)cc3)CC2)C1 [Navitoclax] (partner 0.5 µM)
How it was run: (§1)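 Lung cancer cell lines in 1536-well plates were dosed by pin tool the day after seeding, either with one drug alone or with a fixed anchor-drug dose plus five library-drug doses (not always all listed) in √10 steps. After 5 days, cells were fixed and their nuclei stained in one step (final 0.05% Triton X-100, 1% formaldehyde, 1 ug/ml Hoechst), then counted on 4× images. Relative viability is the nuclei count in treated wells divided by that in vehicle wells. Values are medians of duplicate plates.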

[2] = compound: CCN1CCN(c2ccc(Nc3cc(N(C)C(=O)Nc4c(Cl)c(OC)cc(OC)c4Cl)ncn3)cc2)CC1 [BGJ398] + Cc1cc(Nc2cc(N3CCN(C)CC3)nc(Sc3ccc(NC(=O)C4CC4)cc3)n2)n[nH]1 [Tozasertib] (partner 0.1 µM)
How it was run: as §1

[3] = compound: CCN1CCN(c2ccc(Nc3cc(N(C)C(=O)Nc4c(Cl)c(OC)cc(OC)c4Cl)ncn3)cc2)CC1 [BGJ398] + N=C(N)NC(=N)NCCc1ccccc1 [Phenformin] (partner 250 µM)
How it was run: as §1

[4] = compound: CCN1CCN(c2ccc(Nc3cc(N(C)C(=O)Nc4c(Cl)c(OC)cc(OC)c4Cl)ncn3)cc2)CC1 [BGJ398] + Nc1ncn([C@H]2C[C@H](O)[C@@H](CO)O2)c(=O)n1 [Decitabine] (partner 2 µM)
How it was run: as §1

UMC-11 gave a relative viability ([1]; first compound 0.02 µM) of 0.296, a relative viability ([1]; first compound 0.06325 µM) of 0.397 and a relative viability ([1]; first compound 0.2 µM) of 0.312. It also gave a relative viability ([1]; first compound 0.6325 µM) of 0.307, a relative viability ([1]; first compound 2 µM) of 0.302 and a relative viability ([2]; first compound 0.01 µM) of 0.2. For the same cell line, the relative viability ([2]; first compound 0.03162 µM) was 0.202, the relative viability ([2]; first compound 0.1 µM) was 0.207 and the relative viability ([2]; first compound 0.3162 µM) was 0.206. It also gave a relative viability ([2]; first compound 1 µM) of 0.235, a relative viability ([3]; first compound 0.01 µM) of 0.325 and a relative viability ([3]; first compound 0.03162 µM) of 0.344. For the same cell line, the relative viability ([3]; first compound 0.1 µM) was 0.391, the relative viability ([3]; first compound 0.3162 µM) was 0.341 and the relative viability ([3]; first compound 1 µM) was 0.341. It also gave a relative viability ([4]; first compound 0.01 µM) of 0.504, a relative viability ([4]; first compound 0.03162 µM) of 0.571 and a relative viability ([4]; first compound 0.1 µM) of 0.637. It also gave a relative viability ([4]; first compound 0.3162 µM) of 0.652 and a relative viability ([4]; first compound 1 µM) of 0.365.
